In PubChem BioAssay (NCI):
Where “and” joins values, the source holds several entries; their conditions need not be identical. Identical values can stand only once.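 Cells were grown in 96-well plates and exposed to each compound for 48 hours at five concentrations; endpoints were interpolated linearly between bracketing concentrations, or set to the highest concentration if not reached. Here, GI50 denotes the concentration required for 50% inhibition of growth. At the TGI there is no net growth.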

How the values were obtained:
Assay in all cases: NCI anticancer screen, dose series, 48 h
[1] = system: DLD-1 colon
[2] = system: DMS 114 small cell lung
[3] = system: DMS 273 small cell lung
[4] = system: HOP-18 NSCLC
[5] = system: KM12 colon
[6] = system: KM20L2 colon
[7] = system: LXFL 529 NSCLC
[8] = system: M19-MEL melanoma
[9] = system: NCI-H23 lung
[10] = system: NCI-H460 lung
[11] = system: SNB-78 CNS
[12] = system: UACC-257 melanoma
[13] = system: XF 498 CNS
[14] = system: RXF-631 renal
[15] = system: MDA-N

Structure (SMILES) | TGI [5] | TGI [9] | TGI [10] [µM] | TGI [12] [µM] | TGI [15] | other results
COc1cc2c(oc(=O)c3c4occc4cc(OC)c23)c2cccc(O)c12 | > 100 µM | > 100 µM | > 100 | > 100 |  | TGI [1]: > 100 µM; TGI [2]: > 100 µM; TGI [3]: > 100 µM; TGI [4]: > 100 µM; TGI [6]: > 100 µM; TGI [7]: > 100 µM; TGI [8]: > 100 µM; TGI [11]: > 100 µM; TGI [13]: > 100 µM
OC12CCC3(OC4CCCCO4)c4ccccc4C3C1c1ccccc12 (centres undefined) | > 100 µM | > 100 µM | > 100 | > 100 |  | TGI [2]: > 100 µM; TGI [3]: > 100 µM; TGI [4]: > 100 µM; TGI [6]: > 100 µM; TGI [7]: > 100 µM; TGI [8]: > 100 µM; TGI [11]: > 100 µM; TGI [13]: > 100 µM
C/C(=C\C(=O)Nc1ccc2n[nH]nc2c1)Nc1ccc2n[nH]nc2c1 | > 100 µM | > 100 µM | > 100 | > 100 |  | TGI [1]: > 100 µM; TGI [2]: > 100 µM; TGI [4]: > 100 µM; TGI [6]: > 100 µM; TGI [7]: > 100 µM; TGI [8]: > 100 µM; TGI [14]: > 100 µM; TGI [11]: > 100 µM
CCOc1ccc(C2=NN(CC)C(=O)C(C3C(=O)N(c4ccccc4)N=C3C)C2)cc1 (centres undefined) | > 100 µM | > 100 µM | > 100 | > 100 |  | TGI [1]: > 100 µM; TGI [2]: > 100 µM; TGI [3]: > 100 µM; TGI [4]: > 100 µM; TGI [6]: > 100 µM; TGI [7]: > 100 µM; TGI [8]: > 100 µM; TGI [11]: > 100 µM; TGI [13]: > 100 µM
O=c1cc(NNc2cccc3ccccc23)[nH]c(=O)[nH]1 | 29.9 µM | 28.9 µM | 43.5 | 29.4 | 24.4 µM | 
CCCOC(=O)c1cc(O)c(O)c(O)c1 | > 100 µM | > 100 µM | > 100 | > 100 | 76.9 µM | 
COc1cc2c(c(OC)c1OC)C(=O)c1c(O)cc(C)c(OC)c1C2=O | > 100 µM | > 100 µM | > 100 | > 100 | > 100 µM | 
COC(=O)[C@@H]1c2c(oc3cc(CO)cc(O)c3c2=O)C=C[C@H]1O | 14.8 µM | 36 µM | 34 | 21.5 | 18.9 µM | 
Clc1ccc(-c2cn3c(nc4ccccc43)c(-c3ccccc3)n2)cc1 | > 100 µM | 64.2 µM | > 57.4 | > 100 | > 100 µM | 
Cc1ccc(C)c2c1C1CCCCC3(OCCCO3)C21O (centres undefined) | > 100 µM | > 100 µM | > 100 | > 100 |  | TGI [1]: > 100 µM; TGI [2]: > 100 µM; TGI [3]: > 100 µM; TGI [4]: > 100 µM; TGI [6]: > 100 µM; TGI [7]: > 100 µM; TGI [8]: > 100 µM; TGI [11]: > 100 µM
CCOC(=O)C(O)(CC1=NC(C(=O)OC)(C(=O)OC)C(c2cccc(C=O)c2)O1)C(=O)OCC (centres undefined) | > 100 µM | > 100 µM | > 100 | > 100 | > 100 µM | 
CNC(=S)N/N=C/C(C)=N/NC(=S)NC | > 100 µM | > 100 µM | > 100 |  |  | TGI [2]: > 100 µM; TGI [3]: > 100 µM; TGI [4]: > 100 µM; TGI [6]: > 100 µM; TGI [8]: > 100 µM; TGI [11]: > 100 µM
COCN1C(=O)[C@@H]2CCCN2C(=O)c2ccc(N)cc21 | > 100 µM | > 100 µM | > 100 | > 100 | > 100 µM | 
O=c1c(-c2nc3ccccc3c3ccccc3c2=O)nc2ccccc2c2ccccc12 | > 100 µM | > 100 µM | > 100 | > 100 | 69 µM | 
Cc1sc(/N=C/C2=C(O)CC(C)(C)CC2=O)nc1-c1ccccc1 | > 100 µM | > 100 µM | > 100 | > 100 | > 100 µM | 
CC(=O)OCC1OC(OCCCOP(=O)(OCCC#N)OCC2OC(n3cnc4c(N)ncnc43)C(OC(=O)c3ccccc3)C2OC(=O)c2ccccc2)C(OC(C)=O)C(OC(C)=O)C1OC(C)=O (centres undefined) | > 100 µM | > 100 µM | > 100 | > 100 | > 100 µM | 
OCCc1ccsc1-c1sc(-c2cc(CCO)c(-c3sc(-c4cc(CCO)c(-c5sccc5CCO)s4)cc3CCO)s2)cc1CCO | 1.9 µM | 2.87 µM | 2.95 | 2.9 | 4.29 µM | 
Cc1ccc(S(=O)(=O)N/N=C2\C=CC3(CC2)C(=O)N(I)c2ccccc23)cc1 (centres undefined) | > 100 µM | > 100 µM | > 100 | > 100 | > 100 µM | 
Cc1nc2ccc(NCCN(C)C)c3c(=O)c4ccccc4n1c23 | 13.1 µM | 9.94 µM | 10.8 | 17.6 | 12.4 µM | TGI [1]: 21.3 µM; TGI [2]: 21.5 µM; TGI [4]: 51.2 µM; TGI [6]: 16.9 µM; TGI [7]: 22.6 µM; TGI [8]: 19.5 µM; TGI [14]: 15.8 µM; TGI [11]: 23.9 µM
CN(C)S(=O)(=O)c1ccc2[nH]c(O)c(C3=Nc4ccccc4C3=O)c2c1 | > 100 µM | 29.9 µM | 97.5 | > 100 | > 100 µM | 
CCOP1(=O)CC(C)=C(Cl)C(OC)C1 (centres undefined) | > 100 µM | > 100 µM | > 100 | > 100 | > 100 µM | 
COc1cccc(NC(=O)CC(=O)NN)c1 | > 100 µM | > 100 µM | > 100 | > 100 | > 100 µM | 
CC(=O)c1csc2c1C(=O)c1ccccc1C2=O | 3.68 µM | 3.59 µM | 5 | 2.92 | 4.21 µM | 
COC1OC2COC(=O)c3cc(O)c(O)c(O)c3-c3c(cc(O)c(O)c3O)C(=O)OC2C(O)C1O (centres undefined) | > 100 µM | > 100 µM | > 100 | > 100 | 59.2 µM | 
CCOC(=O)[C@@]12C[C@](/C=C/OC)(O[Si](C)(C)C)[C@@]13c1cc(OC)c(OC)cc1CCN3C(=O)C2=O | > 100 µM | > 100 µM | > 100 | > 100 | > 100 µM | 
COC(=O)CN1CCN(c2cccc3c2CCCC3)CC1 | > 100 µM | 48.7 µM | > 100 | > 100 | > 100 µM | 

Structure (SMILES) | TGI [5] | TGI [9] | TGI [10] [µM] | TGI [12] [µM] | TGI [15] | other results
CCOc1ccc2nc(NC(=O)C(=O)C3C(=O)C(CC4C(=O)c5ccccc5C4=O)C(=O)CC3(C)C)sc2c1 (centres undefined) | > 100 µM | > 100 µM | > 100 | > 100 | > 100 µM | 
CC(C)c1cc(=O)[nH]c2cc(N)ccc12 | > 100 µM | > 100 µM | > 100 | > 100 | > 100 µM | 
CC1(C)N=C(C(N)=O)c2[nH]cnc2N1 | > 100 µM | > 100 µM | > 100 | > 100 | > 100 µM | 
Nc1nc(Cl)c2ncn(CCCC(c3ccccc3)P(=O)(O)O)c2n1 (centres undefined) | > 100 µM | > 100 µM | > 100 | > 100 |  | TGI [1]: > 100 µM; TGI [2]: > 100 µM; TGI [3]: > 100 µM; TGI [4]: > 100 µM; TGI [6]: > 100 µM; TGI [7]: > 100 µM; TGI [8]: > 100 µM; TGI [11]: > 100 µM
Cc1ccc(C2=CC(=O)/C(=C\C(=O)c3ccc(Br)cc3)O2)c(C)c1 | 48.6 µM | 56.9 µM | 69.2 | > 48.6 | 19.9 µM | 
CC(=O)Oc1ccc2cc(Oc3cc(Cl)c(Cl)cc3Cl)c(=O)oc2c1 | 25.6 µM | 88.5 µM | 37.8 | 50.6 | 30.6 µM | 
C[N+](C)(CCNc1ccc(NCC[N+](C)(C)Cc2ccc([N+](=O)[O-])cc2)c2c1C(=O)c1c(O)ccc(O)c1C2=O)Cc1ccc([N+](=O)[O-])cc1 | 14.5 µM | > 50 µM | > 50 | > 50 | > 50 µM | 
CC(=O)OC1CCn2c1nc1cc([N+](=O)[O-])c(C)cc12 (centres undefined) | > 100 µM | > 100 µM | > 100 | > 100 | > 100 µM | 
COC(=O)c1ccccc1C1CN=NC12Cc1ccc(C)cc1C2=O (centres undefined) | > 100 µM | > 100 µM | > 100 | > 100 | > 100 µM | 
NC(=S)NNCC(=O)CC(O)(C(F)(F)F)C(F)(F)Cl (centres undefined) | > 100 µM | > 100 µM | > 100 | > 100 | > 100 µM | 
Nc1nc(N)c2nc(CN(C=O)c3ccc(C(=O)O)cc3)cnc2n1 | > 100 µM | > 100 µM | > 100 | > 100 | > 100 µM | 
Cc1cccc2c(=O)c3c(O)cc(O)cc3n(C)c12 | > 100 µM | > 100 µM | > 100 | > 100 | > 100 µM | 
CCCC(=O)Nc1cc(C(=O)N2C[C@H]3C[C@@]34C2=CC(=O)c2[nH]cc(C)c24)n(COC)c1 | 2.29 µM and 14.7 µM | 0.452 µM and 0.213 µM |  | 0.833 | 1.59 µM and 0.316 µM | GI50 [5]: 0.282 µM; GI50 [15]: 0.164 µM; GI50 [9]: 0.0328 µM; GI50 [10]: 0.135 µM
O=C(C[N+]12CN3CN(CN(C3)C1)C2)c1ccc(-c2ccccc2)cc1 | 90.3 µM | 53.5 µM | 30.9 | 29.8 | 42.8 µM | 
CCN(CC)c1c(C(C)(C)C)c(=O)n2ccsc2c1OC(C)=O | 30.6 µM | 30.7 µM | 31.3 | 30.7 | 34.6 µM | 
CCOC(=O)Cc1c(C(=O)OCC)[n+](=O)c2cc(Cl)c(Cl)cc2n1[O-] | 2.95 µM | 5.49 µM | 3.46 | 5.51 | 11.9 µM | 
O=C1c2cc3c(cc2NC(c2ccccc2F)C1O)OCO3 (centres undefined) | > 100 µM | > 91.5 µM | > 100 | > 100 | 8.29 µM | 
NC(CCC(=O)c1ccccn1)C(=O)O (centres undefined) | > 100 µM | > 100 µM | > 100 | > 100 | > 100 µM | 
CC(=O)N[C@@H](Cc1ccc(O)cn1)C(=O)NCc1ccc(Cl)cc1 | > 100 µM | > 100 µM | > 100 | > 100 | > 100 µM | 
Nc1nc(Cl)c(CO)c(NCC2(CO)CCC2)n1 | > 100 µM | > 100 µM | > 100 | > 100 | > 100 µM | 
CC(C)(C)OC(=O)Cn1ncn(NC(=O)Cc2ccccc2)c1=S | > 10 µM | > 10 µM | > 10 | > 10 | > 10 µM | 
COc1cc(/C=C(\C)[N+](=O)[O-])cc(OC)c1 | 36.8 µM | 37.1 µM | 39.5 | 31 | 17.5 µM | 
CC(=O)O[C@H]1[C@@H](N2CCOCC2)C[C@H]2[C@@H]3CC=C4C[C@@H](N5CCCC5)CC[C@]4(C)[C@H]3CC[C@@]21C | > 100 µM | > 100 µM | > 100 | > 100 | > 100 µM | 
c1ccc(C(Oc2noc3ccccc23)c2ccccc2)cc1 | > 100 µM | > 100 µM | > 100 | 99.6 | 67.2 µM | 
O=CN1CCN(c2ccc3ccc(=O)[nH]c3n2)CC1 | > 100 µM | > 100 µM | > 100 | > 100 | > 100 µM | 
